Test systems include SF-539; SK-MEL-2; OVCAR-3; A498; NCI-H460; UACC-257; ACHN; DU-145; OVCAR-4; KM12; HCT-15; OVCAR-8; CAKI-1; K562; HOP-62; RPMI-8226; SW-620; SNB-19; MCF7; MDA-MB-231.
What all share (assay): DTP human tumour cell line panel, 48 h

Where “and” joins values, the source holds several entries; their conditions need not be identical. Identical values can stand only once.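 1) Cells in 96-well plates. 2) Compound, 48 h, 5 concentrations. 3) Linear interpolation between surrounding doses. 4) Unreached endpoint = highest concentration. GI50: concentration for 50% inhibition of growth.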 Calls of active or inactive are those of the source. Rule as the data show it: active = GI50 up to about 1.1 µM and inactive = higher. Residues, ends and D or L forms follow the SMILES beside them. *: point of attachment. OBn = c1ccc(CO*)cc1

Usually GI50 stands for the concentration that inhibits growth by half. With `Cc1cn(C2CC(N)C(CN)O2)c(=O)[nH]c1=O` (stereo not given), the GI50 with SF-539, in the assay with SK-MEL-2, in the assay on OVCAR-3, in the assay on A498, with NCI-H460 and with UACC-257 was > 100 µM (inactive) each time. Moreover, the GI50 with ACHN was > 100 µM (inactive); in the assay on DU-145 it was > 100 µM (inactive); in the assay with OVCAR-4, > 100 µM (inactive); with KM12, > 100 µM (inactive); in the assay with HCT-15, more than 100 µM; with OVCAR-8 it was > 100 µM (inactive). In addition, the GI50 in the assay on CAKI-1, in the assay on K562, in the assay with HOP-62, in the assay with RPMI-8226, with SW-620 and in the assay with SNB-19 was > 100 µM (inactive) throughout. In addition, the GI50 in the assay on MCF7 was > 100 µM (inactive).
For `Cc1cc(Br)c(N2C3=C(CC4=C2CCCC4=O)C(=O)CCC3)c(Br)c1`, the GI50 was > 100 µM (inactive) in the assay with SF-539; 42.9 µM (inactive) in the assay with OVCAR-3; 94.8 µM (inactive) with A498; 31.5 µM (inactive) in the assay with NCI-H460; 46.8 µM (inactive) in the assay with ACHN; 93.5 µM (inactive) in the assay with OVCAR-4. Also, the GI50 with KM12 is 62.5 µM (inactive); in the assay on HCT-15, 29.1 µM; with OVCAR-8 it was 44.6 µM (inactive); with CAKI-1, > 100 µM (inactive); in the assay on K562, 13.2 µM (inactive); with RPMI-8226 it was 27.4 µM (inactive). In addition, the figures for the GI50 in the assay with SW-620, in the assay with SNB-19 and in the assay with MCF7 were 31.6 µM (inactive), > 100 µM (inactive) and 33.3 µM (inactive), respectively.
In the case of `NC(=O)c1cc2ccc(O)cc2o/c1=N/NC(=O)c1ccccc1`, the GI50 in the assay with MDA-MB-231 is 80.5 µM (inactive); in the assay with SK-MEL-2 it was 28.2 µM (inactive); with OVCAR-3, 80.5 µM (inactive); in the assay on A498 it was 40.5 µM (inactive); in the assay on NCI-H460 it was 40.2 µM (inactive); in the assay on UACC-257, > 100 µM (inactive). For the same molecule, the GI50 in the assay with ACHN is 58.1 µM (inactive); in the assay on OVCAR-4, > 100 µM (inactive); in the assay with KM12, 77.1 µM (inactive); with HCT-15, 79.3 µM; with OVCAR-8, 67.8 µM (inactive); in the assay with CAKI-1, 36.6 µM (inactive). The GI50 in the assay on K562 was 75.5 µM (inactive); in the assay with HOP-62 it was > 100 µM (inactive); in the assay on RPMI-8226 it was 77.3 µM (inactive); with SW-620, 64.3 µM (inactive); with SNB-19, > 100 µM (inactive); in the assay with MCF7, > 100 µM (inactive).
Take `CC(C)(C)C=C=C(C(C)(C)C)P(=O)(O)O`: the GI50 in the assay on SF-539, with SK-MEL-2, with OVCAR-3, in the assay with A498, with NCI-H460 and in the assay with UACC-257 was > 100 µM (inactive) throughout. Moreover, the GI50 in the assay with ACHN is > 100 µM (inactive); in the assay with DU-145, > 100 µM (inactive); in the assay on OVCAR-4, > 100 µM (inactive); in the assay with KM12, > 100 µM (inactive); with HCT-15, more than 100 µM; in the assay with OVCAR-8 it was > 100 µM (inactive). In addition, the GI50 is > 100 µM (inactive) in the assay on CAKI-1; > 100 µM (inactive) in the assay on K562; > 100 µM (inactive) in the assay on HOP-62; < 0.01 µM (active) in the assay with RPMI-8226; > 100 µM (inactive) in the assay on SW-620; > 100 µM (inactive) with SNB-19.
`COc1ccc(/C=C2\N=C(N3CCCCC3)NC2=O)cc1`: the GI50 in the assay with SF-539 is 54 µM (inactive); in the assay with MDA-MB-231, > 100 µM (inactive); in the assay on SK-MEL-2 it was > 100 µM (inactive); in the assay with OVCAR-3, > 100 µM (inactive); in the assay with UACC-257, > 100 µM (inactive); in the assay with ACHN, > 100 µM (inactive). Moreover, the GI50 is > 100 µM (inactive) in the assay on DU-145; > 100 µM (inactive) in the assay on OVCAR-4; 52.1 µM (inactive) with KM12; more than 100 µM in the assay with HCT-15; > 100 µM (inactive) with OVCAR-8; > 100 µM (inactive) in the assay on CAKI-1. Further, the GI50 in the assay with HOP-62 was > 100 µM (inactive); with RPMI-8226, > 100 µM (inactive); in the assay on SW-620, 96.8 µM (inactive); in the assay with SNB-19, > 100 µM (inactive); in the assay with MCF7 it was > 100 µM (inactive).
`CC1=C(C(=O)OC(C)C)C(c2ccccc2[N+](=O)[O-])C(C(=O)OC(CO[N+](=O)[O-])CO[N+](=O)[O-])=C(C)N1` (stereo not given): the GI50 is 3.18 µM (inactive) in the assay on SF-539; 5.68 µM (inactive) with MDA-MB-231; 2.99 µM (inactive) in the assay with SK-MEL-2; 6.49 µM (inactive) with OVCAR-3; 3.1 µM (inactive) in the assay on NCI-H460; 3.85 µM (inactive) with UACC-257. The GI50 was 3.21 µM (inactive) in the assay on ACHN; 5.68 µM (inactive) in the assay on DU-145; 2.12 µM (inactive) in the assay on OVCAR-4; 3.75 µM (inactive) in the assay on KM12; 3.08 µM in the assay with HCT-15; 3.28 µM (inactive) in the assay on OVCAR-8. Further, the GI50 in the assay on CAKI-1 was 3.32 µM (inactive); with K562, 2.81 µM (inactive); with HOP-62, 3.07 µM (inactive); with RPMI-8226 it was 2.98 µM (inactive); with SW-620 it was 4.03 µM (inactive); in the assay on SNB-19, 3.44 µM (inactive). The GI50 in the assay on MCF7 was 3.55 µM (inactive).
Consider `O=c1c2cc(I)ccc2nc(-c2cccs2)n1/N=C/c1ccccc1`, for which the GI50 with SF-539 is > 100 µM (inactive); in the assay on SK-MEL-2 it was 0.536 µM (active); with OVCAR-3 it was > 100 µM (inactive); in the assay on NCI-H460, > 100 µM (inactive); with UACC-257, 79.1 µM (inactive); in the assay on ACHN it was > 100 µM (inactive). The GI50 in the assay with DU-145 is > 100 µM (inactive); in the assay with OVCAR-4 it was > 100 µM (inactive); in the assay with KM12 it was > 100 µM (inactive); in the assay with HCT-15, more than 100 µM; in the assay with OVCAR-8 it was > 100 µM (inactive); in the assay with CAKI-1, > 100 µM (inactive). Further, the GI50 with K562 was 7.18 µM (inactive); with HOP-62, > 100 µM (inactive); in the assay on RPMI-8226, > 100 µM (inactive); with SW-620, > 100 µM (inactive); in the assay on SNB-19, > 100 µM (inactive); in the assay on MCF7 it was > 100 µM (inactive).
Take `NC(CCC(=O)OCc1ccccc1)C(=O)NC(CCC(=O)OCc1ccccc1)C(=O)O` (stereo not given) (H-Glu(OBn)-Glu(OBn)-OH; configuration not given here): the GI50 in the assay with MDA-MB-231, in the assay on OVCAR-3, in the assay on NCI-H460, in the assay on ACHN, in the assay on DU-145 and with OVCAR-4 was > 100 µM (inactive) throughout. Further, the GI50 with KM12 is > 100 µM (inactive); in the assay with HCT-15, more than 100 µM; with OVCAR-8, > 100 µM (inactive); with CAKI-1, > 100 µM (inactive); in the assay on K562, > 100 µM (inactive); in the assay with HOP-62 it was > 100 µM (inactive). Moreover, the GI50 with RPMI-8226, in the assay with SW-620, with SNB-19 and with MCF7 was > 100 µM (inactive) throughout.
In the case of `CC(C)(/C=N\O)NO`, the GI50 in the assay on MDA-MB-231, with SK-MEL-2, with OVCAR-3, in the assay on NCI-H460, in the assay with UACC-257 and in the assay on ACHN was > 10 µM (inactive) in each case. In addition, the GI50 in the assay with DU-145 is > 10 µM (inactive); in the assay on OVCAR-4, > 10 µM (inactive); with KM12 it was > 10 µM (inactive); in the assay with HCT-15, more than 10 µM; in the assay on OVCAR-8, > 10 µM (inactive); with CAKI-1, > 10 µM (inactive). Moreover, the GI50 in the assay with K562, in the assay with HOP-62, in the assay with RPMI-8226, in the assay on SW-620, in the assay with SNB-19 and in the assay on MCF7 was > 10 µM (inactive) each time.
Regarding `Cc1ccc(O)c(C2=NNC(c3cccc(Cl)c3)C2)c1` (stereo not given), the GI50 in the assay on SF-539 is 66.5 µM (inactive); in the assay with MDA-MB-231, 61.5 µM (inactive); in the assay with SK-MEL-2, 30 µM (inactive); in the assay on OVCAR-3 it was 51.5 µM (inactive); in the assay on NCI-H460 it was 19.6 µM (inactive); with UACC-257, 35 µM (inactive). For the same molecule, the GI50 was 30.1 µM (inactive) in the assay on ACHN; 86.1 µM (inactive) in the assay with DU-145; 24.4 µM (inactive) with OVCAR-4; 20.6 µM (inactive) in the assay on KM12; 8.09 µM in the assay on HCT-15; 56.2 µM (inactive) in the assay on OVCAR-8. Moreover, the GI50 was 36.8 µM (inactive) with CAKI-1; 36.4 µM (inactive) with K562; 79.8 µM (inactive) in the assay on HOP-62; 25.1 µM (inactive) with RPMI-8226; 48 µM (inactive) in the assay with SW-620; 14.4 µM (inactive) in the assay with SNB-19. For the same molecule, the GI50 in the assay on MCF7 is 23.2 µM (inactive).
Consider `N#C/C(=C\c1ccc(O)cc1)C(N)=O`, for which the GI50 in the assay on SF-539 is > 100 µM (inactive); in the assay with SK-MEL-2, > 100 µM (inactive); with OVCAR-3, > 100 µM (inactive); in the assay with A498, > 95.7 µM (inactive) and 57.3 µM (inactive); in the assay on NCI-H460, > 100 µM (inactive); with UACC-257, > 100 µM (inactive). The GI50 was > 100 µM (inactive) with ACHN; > 100 µM (inactive) in the assay with OVCAR-4; > 100 µM (inactive) and > 74.6 µM (inactive) in the assay on KM12; more than 100 µM in the assay with HCT-15; > 100 µM (inactive) in the assay with OVCAR-8; > 100 µM (inactive) with CAKI-1. Further, the GI50 with K562, with HOP-62, with RPMI-8226, in the assay with SW-620, in the assay with SNB-19 and in the assay with MCF7 was > 100 µM (inactive) throughout.

The values are drawn from ChEMBL document CHEMBL1201862, “PubChem BioAssay data set” (2004).
